Measurements from PubChem BioAssay AID179 (DTP/NCI, 2004).
pEC50, pIC50: −log10 of the molar value. Values joined by “and” are separate entries in the source; they are usually repeats but may differ in a detail not shown here. Identical values can stand only once. Active and inactive are the calls of the source.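 How the source made its calls: active means compounds giving half or more protection of infected cells from virus-caused growth loss, again on retest; inactive means the rest.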

Tested on: CEM cells HIV-1 protection, formazan growth assay
Assay: NCI AIDS Antiviral Assay
Conditions: for pIC50: measured here: growth of uninfected CEM cells
Summary of the method: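 CEM (human) cells, HIV-1 infected vs uninfected, 5-point dosing, formazan growth read-out. Retest threshold 50% protection.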

Row | Compound | pEC50 | pIC50 | outcome
1 | Cc1ccc(-c2c(C#N)c(-c3ccc([N+](=O)[O-])cc3)c(C#N)c(=O)n2NS(=O)(=O)c2ccccc2)cc1 | < 3.70 | 4.78 | 
2 | Cc1cc(S(=O)(=O)O)c(NC(=O)c2oc3cc(O)ccc3c(=O)c2C)cc1Cl | < 3.23 | < 3.23 | 
3 | Cc1cccc(C)c1NC(=O)CCC/C(CC(=O)c1ccc(F)cc1)=N\NC(=O)C(=O)NN | < 3.83 | < 3.83 | 
4 | OC[P+](CO)(CO)C12CC3CC(CC(C3)C1)C2 | < 3.70 | 4.38 | 
5 | Nc1nc2ccccc2nc1N | < 3.70 | < 3.70 | 
6 | S=C1NNC2(C(=S)N1)c1ccccc1-c1ccccc12 | < 3.70 | 4.06 | 
7 | CCn1c(=O)c2c3ccc(OC(C)=O)cc3[nH]c2c2ccc(OC(C)=O)cc21 | < 3.70 | 4.57 | 
8 | Nc1nc(SC2CCCCC2)nc2c1ncn2C1OC(CO)C(O)C1O (stereo unspecified) | < 3.70 | 3.86 | 
9 | O=C(Nc1nc(C23CC4CC(CC(C4)C2)C3)cs1)c1c(O)c2ccccc2[nH]c1=O | < 3.70 | < 3.70 | 
10 | OCC(O)c1cc(I)c(Oc2ccc(O)cc2)c(I)c1 (stereo unspecified) | < 3.70 | < 3.70 | 
11 | CN(C)CCC(=O)N1C/C(=C/c2ccccc2)C(=O)/C(=C\c2ccccc2)C1 | < 4.76 | 6.47 | 
12 | O=c1c2cnccc2cc2c3ccccc3ccn12 | < 3.70 | 5.13 | 
13 | O=C1C=C(N2CCOCC2)c2cc(N3CCOCC3)ncc2C1=O |  |  | inactive
14 | CC1OC1C(=O)C1(O)C(C)C(O)C23OC2(C(O)c2c(O)cccc2C3=O)C1O (stereo unspecified) | < 3.64 | 6.64 | 
15 | Cc1ccc(NC2=CC(=O)C(=O)c3ccccc32)cc1 | < 4.56 | 4.69 | 
16 | Cc1ccccc1Nc1cn(COCc2ccccc2)c(=O)[nH]c1=O | < 3.70 | 4.37 | 
17 | CC(C)OP(=O)(OC(C)C)C(=NCCO)NNc1ccc([N+](=O)[O-])cc1 | < 3.47 | 4.53 | 
18 | O=C(NNC(=S)Nc1ccc(Cl)cc1)C12CC3CC(CC(C3)C1)C2 | < 3.70 | 5.18 | 
19 | CNC(SC)=C1C(=O)OC(C)(C)OC1=O | < 2.97 | 3.34 | 
20 | CC(=O)Nc1ccc2oc3ccc(Cl)cc3c(=O)c2c1 | < 3.76 | 4.11 | 
21 | CC(=O)[CH-]C(C)=O.CC(=O)[CH-]C(C)=O.N=CC=N.[Sn+2] | < 4.16 | 5.84 | 
22 | N#Cc1cnn2ccn(C3OC(COC(=O)c4ccccc4)C(OC(=O)c4ccccc4)C3OC(=O)c3ccccc3)c12 (stereo unspecified) | < 3.70 | < 3.70 | 

Row | Compound | pEC50 | pIC50 | outcome
23 | O=C1OCC(Cc2ccc3c(c2)OCO3)[C@H]1Cc1ccccc1 (stereo partly specified) | < 3.70 | 3.73 | 
24 | O=C1NC(N2CCOCC2)=N/C1=C\c1ccco1 | < 3.70 | < 3.70 | 
25 | COC[C@H]1C(=O)NCC(=O)N2N=CCC[C@H]2C(=O)N(O)[C@H](C)C(=O)O[C@@H](C(C)C)[C@H](NC(=O)[C@@](C)(O)[C@]2(O)CC[C@@H](CC(C)C)[C@H](C)O2)C(=O)N2NCCC[C@@H]2C(=O)N1O | < 6.82 | 7.38 | 
26 | CC12CCC(O1)C1C(=O)OC(=O)C12 (stereo unspecified) | < 3.31 | 3.36 | 
27 | CCOC(=O)C(=O)N=Nc1nc2c(O)c3ccccc3c(O)c2s1 | < 4.82 | 5.06 | 
28 | O=C1C(Cl)=C(Cl)C(=O)N1c1c(F)c(F)c(F)c(F)c1F |  |  | inactive
29 | COc1cccc(C2C(C(=O)O)=C(CO)Oc3cc4c(cc32)OCO4)c1OC (stereo unspecified) |  |  | inactive
30 | O=C1Nc2nc3ccccc3n2N=C2CCCC12 (stereo unspecified) |  |  | inactive
31 | COc1ccc2c(ccc3c(C(=O)NCCN(C)CCNC(=O)c4cn(C)c5c4ccc4cc(OC)ccc45)cn(C)c32)c1 | < 3.70 | 5.94 | 
32 | O=c1n(CC2CS2)c2ccccc2n1CC1CS1 (stereo unspecified) | < 3.47 | 5.18 | 
33 | O=C1CC(c2ccccc2)Oc2cc(O)cc(O)c21 (stereo unspecified) | < 3.70 | 4.46 and < 3.70 and 4.26 | 
34 | N#C/C(=C1\N=C(c2ccccc2O)Oc2ccccc21)c1ccc([N+](=O)[O-])cc1 | < 4.00 | < 4.00 | 
35 | NS(=O)(=O)c1ccc(N=Cc2ccccc2O)cc1 | < 3.70 | < 3.70 | 
36 | CCCCCCCCCCCCc1ccsc1-c1ccc(-c2ccc(-c3sccc3CCCCCCCCCCCC)s2)s1 | < 4.60 | < 4.60 | 
37 | COC1CCC(OS(C)(=O)=O)C(CO)O1 (stereo unspecified) |  |  | inactive
38 | CSC1SCC2C(=O)N(C)C3(CC3C)C(=O)OCC(NC(=O)c3nc4ccccc4cc3O)C(=O)NC(C)C(=O)N(C)C1C(=O)N(C)C1(CC1C)C(=O)OCC(NC(=O)c1nc3ccccc3cc1O)C(=O)NC(C)C(=O)N2C (stereo unspecified) | < 5.08 | 8.58 | 
39 | O=P(O)(Cc1ccccc1)c1ccccc1-c1ccccc1 | < 3.70 | 4.31 | 
40 | CC1(C)CSCC(C)(C)C2(C=CC=CC=N2)C1=O (stereo unspecified) | < 3.72 | 4.58 | 
41 | COc1ccc(C)cc1C1CCC(=O)O1 (stereo unspecified) | < 2.92 | < 2.92 | 
42 | Cn1c(N)c(N=Nc2ccc(S(=O)(=O)Nc3nccs3)cc2)c(=O)n(C)c1=O |  |  | inactive
43 | CCOC(=O)C(CCCCS(=O)(=O)O)C(=O)OCC | < 3.70 | < 3.70 | 
44 | CC(=O)O/N=C(/C)c1ccccc1O | < 4.57 | < 4.57 | 

Row | Compound | pEC50 | pIC50 | outcome
45 | Cc1nc(-c2nc(C)c(C(=O)/C=C/c3ccc([N+](=O)[O-])cc3)s2)sc1C(=O)/C=C/c1ccc([N+](=O)[O-])cc1 | < 4.32 | < 4.32 | 
46 | c1cc2c(c(CC3CO3)c1CC1CO1)OCCOCCOCCOCCO2 (stereo unspecified) | < 3.18 | 5.86 | 
47 | O=C(Nc1ccccc1)c1nn(-c2cc(S(=O)(=O)O)c([N+](=O)[O-])cc2Cl)[n+](-c2cc(S(=O)(=O)[O-])c([N+](=O)[O-])cc2Cl)n1 | 4.19 | < 4.00 | 
48 | CC(C)C(=O)OCN(C)c1nc(N(C)COC(=O)C(C)C)nc(N(C)COC(=O)C(C)C)n1 | < 3.70 | 4.73 | 
49 | O=S(=O)(Nc1cccc(F)c1)c1ccc(F)cc1 |  |  | inactive
50 | N=S(=O)(c1ccccc1)c1ccccc1[N+](=O)[O-] (stereo unspecified) | 4.27 | 4.04 | 
51 | CCOP(=O)(OCC)C1CC(O)CN1OC(=O)C(C)(C)C (stereo unspecified) | < 3.70 | < 3.70 | 
52 | CC(C)N(C(=O)C12C3C4C5C3C1(C#N)C5C42)C(C)C (stereo unspecified) | < 3.71 | < 3.71 | 
53 | CN(C)c1ccc(/C=N/Nc2nc3ccccc3c(=O)n2-c2ccccc2)cc1 | < 4.00 | < 4.00 | 
54 | N=C1C=CC2C(=Nc3ccccc3[N+]2=O)N1Cc1ccncc1 (stereo unspecified) | < 4.65 | 4.67 | 
55 | C/C(=N\N=C(/[Se])N1CC2CCC(CC2)C1)c1ccccn1 | < 4.27 | 6.77 | 
56 | C[N+]12C=CC=C1C(N1CCCC1)c1sc(-c3ccc(Cl)cc3)cc12 (stereo unspecified) | < 3.70 | 4.89 | 
57 | Clc1ccc(C2SCc3nc4ccccc4n32)cc1Cl (stereo unspecified) |  |  | inactive
58 | Cc1cccc(C(O)c2cccnc2)c1O (stereo unspecified) | < 3.70 | < 3.70 | 
59 | Cc1nc2c3c(ccc2[nH]c1=O)C(=O)c1ccccc1C3=O |  |  | inactive
60 | O=C(O)CCC(=O)Nc1ccc2c(c1)S(=O)(=O)N(CC(=O)O)C2=O | < 3.70 | < 3.70 | 
61 | CC(CN(C)C)OC(=O)c1cc2ccccc2[nH]1 (stereo unspecified) | < 3.70 | < 3.70 | 
62 | COc1cc(-c2nccc3cc(OC)c(OC)cc23)ccc1O |  |  | inactive
63 | Cc1ccc2nc(CN(CCO)CCO)cc(=O)n2c1 | < 3.70 | < 3.70 | 
64 | CCCC(C(=O)OC)C1N=C(NC#N)N(Cc2ccccc2)C1=O (stereo unspecified) | < 3.96 | < 3.96 | 
65 | Clc1ccccc1C(n1cc(Br)cn1)n1cc(Br)cn1 |  |  | inactive
66 | CN(C)CCCNC(=O)c1cc(NC(=O)c2cc(NC(=O)c3cc(NC(=O)c4ccc(C(=O)Nc5cc(C(=O)Nc6cc(C(=O)Nc7cc(C(=O)NCCCN(C)C)n(C)c7)n(C)c6)n(C)c5)nc4)cn3C)cn2C)cn1C | 5.27 | < 4.00 | 

Row | Compound | pEC50 | pIC50 | outcome
67 | Cc1cc2c(cc1C)C(=O)/C(=N/Nc1ccc(F)cc1)CCO2 | < 3.70 | 3.75 | 
68 | O=C(OC1C#CCSCC#C/C=C\1)c1cnc2ccccc2n1 (stereo unspecified) | < 3.70 | 4.48 | 
69 | O=C(COc1ccc2c(=O)cc(-c3ccc(Cl)cc3)oc2c1)N1CCN(c2ccccc2)CC1 | 6.09 | 4.68 | 
70 | CC(=O)Nc1cc(NC(C)=O)c(N=O)c(NC(C)=O)n1 |  |  | inactive
71 | NC(=O)CCNC(=O)c1ccccc1SC(=O)NCCBr | 5.86 | 5.00 | 
72 | CCN(CC)CCNC(=O)c1nn(-c2ccc(Cl)cc2)c2c1CCc1cc(OC)ccc1-2 | < 4.04 | 5.30 | 
73 | N#C/C(=C\NC(=S)C(N)=S)c1nc2ccccc2s1 | < 3.70 | 5.24 | 
74 | COc1ccc(N2C(=O)C(=O)N(c3ccccc3[N+](=O)[O-])C2=S)cc1 | < 3.70 | 4.56 | 
75 | COC(=O)Cc1cc(O)c(C/C=C(\C)CC/C=C(\C)C(O)C(=O)C=C(C)C)cc1O (stereo unspecified) | < 4.80 | 5.03 | 
76 | O=C1CN(CCO)CC(=O)N2Cc3ccccc3CN12 |  |  | inactive
77 | CNc1c(Cl)cc(/C=C2\C=Cc3ccccc32)cc1Cl | < 4.76 | 4.89 | 
78 | COc1cc2c(c(OC)c1OC)-c1ccc(O)cc1C(NC(C)=O)CC2 (stereo unspecified) | < 5.70 | 7.22 | 
79 | Cc1cc(=O)c2c3c(ccc2[nH]1)Oc1ccccc1O3 | < 5.12 | < 5.12 | 
80 | CC1NCc2c1[nH]cnc2=S (stereo unspecified) | < 3.59 | < 3.59 | 
81 | Cc1cc(C)c2c(c1)C(=O)/C(=C/c1ccccc1C(=O)O)C2 |  |  | inactive
82 | COc1ccc(C2NC(=S)N3C(c4ccc(OC)c(OC)c4)NC(=S)N23)cc1OC (stereo unspecified) | < 3.70 | < 3.70 | 
83 | CC(C)N(C(=O)C12C3C4C1C1C2C3C41C(N)=O)C(C)C (stereo unspecified) | < 3.04 | < 3.04 | 
84 | Cc1cc2c(C)n(Cc3ccccc3Cl)nc2c(C(=O)O)c1C | < 3.12 | 3.83 | 
85 | CCOC(=O)C(=O)C1CCCCC1=O (stereo unspecified) | < 3.70 | 4.36 | 
86 | C#CCN1C(=O)CN2C(Cl)(Cl)C2(c2ccccc2)c2cc(Cl)ccc21 (stereo unspecified) | < 3.70 | 4.64 | 
87 | COC(=O)C1(C(=O)OC)CC2=C(S(=O)(=O)c3ccccc3)C[C@H](C#N)[C@H]2C1 | < 3.70 | 4.23 | 
88 | CC1=CC2Cc3ccoc3C(C)(C)C2CC1 (stereo unspecified) |  |  | inactive
